What was measured:
rice protoplasts = assay: Reactive oxygen production in rice protoplasts, luminol method; format: cell-based, Oryza sativa L. cv. Nipponbare; conditions: 1 μL of 100 μg/mL (GlcNAc)8, 15 minutes
Procedure: Protoplasts were prepared from cultured rice cells, and the effect of the anti-Con A-CEBiP antibodies on elicitor-responsive reactive oxygen production was examined.
Cultured rice cells were strained through a metal mesh. Four days later, these cells were placed into 14 mL of 0.1% CaCl2, 0.02% MES, 9% Mannitol solution (pH 5.6) containing 2% Cellurase RS (Yakult) and 0.05% Pectolyase Y-23, and then gently shaken at 30° C. for six hours. Cells were filtered through a 25 μm nylon mesh, and the cells on the mesh were washed with 20 mL of Washing buffer (0.1% CaCl2/0.4 M Mannitol) (Nishimura, N., Tanabe, S., He, D.-Y, Yokota, T., Shibuya, N. and Minami, E. Plant Physiol. Biochem., 39, 1105-1110 (2001)). The protoplasts were collected into a 50 mL Falcon tube and recovered by centrifugation at 600 rpm for five minutes. […]
25 μL of the reacted solution, 400 μL of 50 mM potassium phosphate buffer (pH 7.9), 25 μL of 1.1 mM luminol, and 50 μL of 14 mM potassium ferricyanide were stirred in a tube, and immediately thereafter, a chemiluminescence count was measured for ten seconds using a luminometer (Turner Designs TD-20/20, Sunnyvale, Calif.). H2O2 concentration was calculated by producing a standard curve after measuring the luminescence by a commercially available H2O2 solution (aqueous 30% H2O2 solution, Wako Pure Chemical Industry).

NT rice cells = assay: Reactive oxygen production due to elicitors in NT cultured rice cells; format: cell-based, Oryza sativa L. cv. Nipponbare; conditions: (GlcNAc)8 100 ng/mL; FIG. 16
Procedure: (§1) Reactive oxygen production due to sugar elicitor treatment in NT and CEBiP-RNAi cultured rice cells was analyzed as follows: NT rice calli and CEBiP-RNAi rice calli were placed into 100 mL Erlenmeyer flasks containing 30 mL of N6 medium. After culturing at 27° C. for one week, the cells were strained, 0.6 mL of cells were transferred to 30 mL of fresh medium and cultured for another four days. 60 mg or 100 mg of each of the cultured cells were placed into a 2 mL tube, 1 mL of fresh N6 medium was added, and the cells were cultured overnight. (GlcNAc)8 (100 ng/mL), Pseudomonas aeruginosa-derived lipopolysaccharide (LPS, 50 μg/mL, Sigma), and (GlcNH2)7 (2 μg/mL) were used as elicitors. An elicitor was added to NT and CEBiP-RNAi cultured rice cells, treatment was carried out for 30 minutes or two hours, then 25 μL of the medium solution was sampled for reactive oxygen measurements. As a control, a same amount of distilled water (DW) was added, and similar treatments were carried out. Reactive oxygen was measured by adding 25 μL of the reacted solution, 400 μL of 50 mM potassium phosphate buffer (PK, pH 7.9), 25 μL of 1.1 mM luminol, and 50 μL of 14 mM potassium ferricyanide to a tube, mixing, then immediately measuring chemiluminescence counts for ten seconds in a luminometer (Turner Design TD-20/20, Sunnyvale, Calif.).

NT cultured rice cells = assay: Microarray analysis of elicitor-responsive genes, NT cultured rice cells; format: cell-based
From the text: (§2) An oligoarray (Agilent) produced from a rice full-length cDNA database was used for the microarray analyses. For the preparation of Cyanine 3 (Cy3)- and Cyanine 5(Cy5)-labeled cRNAs, RNAs isolated from each of the cultured cells of NT and two kinds of CEBiP-RNAi cultured rice cells treated with (GlcNAc)8 for two hours ((GlcNAc)8-NT, (GlcNAc)8-CEBiP-RNAi #3, and (GlcNAc)8-CEBiP-RNAi #6) as well as of cultured cells treated with water as controls were used. Methods for Cy3- and Cy5-labeling and methods for hybridizing the Cy3- and Cy5-labeled samples with slide glasses onto which 22K rice oligoprobes have been attached were carried out according to the protocol from Agilent. The combinations of hybridization reagents that were used were Cy5-labeled (GlcNAc)8-NT/Cy3-labeled NT; [2] Cy5-labeled (GlcNAc)8-CEBiP-RNAi #3/Cy3-labeled CEBiP-RNAi #3; and [3] Cy5-labeled (GlcNAc)8-CEBiP-RNAi #6/Cy3-labeled CEBiP-RNAi #6. Furthermore, experiments in which the labeling reagents were swapped (the labeled forms were interchanged) were also performed. The obtained results were analyzed at http://tos.nias.affrc.go.jp/cgi-bin/tos17/array.cgi.

CEBiP-RNAi #6 rice cells = assay: Microarray analysis of elicitor-responsive genes, CEBiP-RNAi #6 cultured rice cells; format: cell-based
From the text: as §2

CEBiP-RNAi rice cells = assay: Reactive oxygen production due to elicitors in CEBiP-RNAi cultured rice cells; format: cell-based, Oryza sativa L. cv. Nipponbare; conditions: (GlcNH2)7 2 μg/mL
Procedure: as §1

CEBiP gene expression = assay: Effect of elicitor on CEBiP expression in cultured cells (FIG. 10); format: cell-based, rice
[1] = (GlcNAc)8-NT/NT area, two hours
[2] = (GlcNAc)8 two hours vs water, NT cultured rice cells
[3] = (GlcNAc)8-CEBiP-RNAi #6/CEBiP-RNAi #6 area, two hours
[4] = (GlcNAc)8 two hours vs water, CEBiP-RNAi #6 cells
[5] = CEBiP-RNAi #6 cells vs non-transformant

## CC(=O)N[C@H]1[C@H](O[C@H]2[C@H](O)[C@@H](NC(C)=O)[C@H](O[C@H]3[C@H](O)[C@@H](NC(C)=O)[C@H](O[C@H]4[C@H](O)[C@@H](NC(C)=O)C(O)O[C@@H]4CO)O[C@@H]3CO)O[C@@H]2CO)O[C@H](CO)[C@@H](O[C@@H]2O[C@H](CO)[C@@H](O[C@@H]3O[C@H](CO)[C@@H](O[C@@H]4O[C@H](CO)[C@@H](O[C@@H]5O[C@H](CO)[C@@H](O)[C@H](O)[C@H]5NC(C)=O)[C@H](O)[C@H]4NC(C)=O)[C@H](O)[C@H]3NC(C)=O)[C@H](O)[C@H]2NC(C)=O)[C@@H]1O (stereo partly shown) [(GlcNAc)8]
Rice protoplasts
  production of reactive oxygen increase compared to the control: 1.7 times
NT rice cells
  production of reactive oxygen in NT rice cells, LPS treatment in NT defined as 100%: approximately 86.3%
NT cultured rice cells; [1]
  number of genes whose expression level decreased: 220 genes
  number of genes whose expression level increased: 746 genes
NT cultured rice cells; [2]
  FOLD INCREASE NT* AK058296 1-aminocyclopropane-1-carboxylate oxidase: 6.6 fold
  FOLD INCREASE NT* AK058891 β-1.3 glucanase: 4.1 fold
  FOLD INCREASE NT* AK060423 Alanine:glyoxylate aminotransferase like protein: 11.2 fold
  FOLD INCREASE NT* AK060582 Replication protein A1(Os-RPA1): 4.6 fold
  FOLD INCREASE NT* AK060625 GDSL-motif lipase/hydrolase: 6.4 fold
  FOLD INCREASE NT* AK060834 Calreticulin: 3.3 fold
  FOLD INCREASE NT* AK063651 Harpin induced protein: 24.7 fold
  FOLD INCREASE NT* AK066687 Shikimate kinase: 9.5 fold
  FOLD INCREASE NT* AK066784 Small GTP-binding protein (rab5A): 2.1 fold
  FOLD INCREASE NT* AK067690 NAC Transcription factor: 2.4 fold
  FOLD INCREASE NT* AK068115 Harpin induced protein: 43.1 fold
  FOLD INCREASE NT* AK068993 PAL: 48.4 fold
  FOLD INCREASE NT* AK069456 Peroxidase: 10.9 fold
  FOLD INCREASE NT* AK071482 Caffeoyl-CoA 3-O-methyl-transferase: 11.3 fold
  FOLD INCREASE NT* AK071598 Lipid transfer protein: 10.0 fold
  FOLD INCREASE NT* AK072235 Cysteine proteinase: 4.3 fold
  FOLD INCREASE NT* AK073072 CEBiP: 2.6 fold
  FOLD INCREASE NT* AK100959 beta-Expansin(EXPB3): 5.5 fold
  FOLD INCREASE NT* AK101431 Patatin-like protein: 19.6 fold
  FOLD INCREASE NT* AK102192 β-Galactosidase: 3.1 fold
  FOLD INCREASE NT* AK103094 Laccase: 10.0 fold
  FOLD INCREASE NT* AK105971 Pirin: 20.6 fold
CEBiP-RNAi #6 rice cells; [3]
  number of genes whose expression level decreased: 90 genes
  number of genes whose expression level increased: 361 genes
CEBiP-RNAi #6 rice cells; [4]
  FOLD INCREASE RNAi #6 AK058891 β-1.3 glucanase: 11.4 fold
  FOLD INCREASE RNAi #6 AK060582 Replication protein A1(Os-RPA1): 2.8 fold
  FOLD INCREASE RNAi #6 AK060834 Calreticulin: 14.2 fold
  FOLD INCREASE RNAi #6 AK065812 Zea mays NADPH HC toxin reductase: 16.0 fold
  FOLD INCREASE RNAi #6 AK066784 Small GTP-binding protein (rab5A): 2.5 fold
  FOLD INCREASE RNAi #6 AK067690 NAC Transcription factor: 3.4 fold
  FOLD INCREASE RNAi #6 AK068115 Harpin induced protein: 10.1 fold
  FOLD INCREASE RNAi #6 AK068993 PAL: 2.9 fold
  FOLD INCREASE RNAi #6 AK072235 Cysteine proteinase: 5.5 fold
  FOLD INCREASE RNAi #6 AK100959 beta-Expansin(EXPB3): 5.4 fold
  FOLD INCREASE RNAi #6 AK102192 β-Galactosidase: 2.8 fold
  FOLD INCREASE RNAi #6 AK103094 Laccase: 2.1 fold
  FOLD INCREASE RNAi #6 AK103707 Ribosome inactivating protein 2: 27.8 fold
CEBiP-RNAi #6 rice cells; [5]
  genes of the 746 increased in NT showing a suppression of two times or more: 45 genes
  genes of the 746 increased in NT showing suppression of two times or more or loss of elicitor responsiveness: 530 genes
  share of the 746 increased genes showing suppression of two times or more or loss of elicitor responsiveness: 71%
CEBiP-RNAi #6 rice cells; elicitor treatment
  genes of the 361 increased in CEBiP-RNAi #6 with increased expression levels compared to NT cells: one hundred
  genes whose expression level decreased with equivalent response in non-transformant and CEBiP-RNAi #6 rice cells: 44 genes
  genes whose expression level increased with equivalent response in non-transformant and CEBiP-RNAi #6 rice cells: 216 genes
  share of the 361 increased genes with increased expression levels compared to NT cells: approximately 28%
CEBiP-RNAi #6 rice cells; vs non-transformants
  genes decreased in NT showing suppression of two times or more or a loss in CEBiP-RNAi #6: 176 genes
  share of genes decreased in NT showing suppression of two times or more or a loss in CEBiP-RNAi #6: 80%

## N[C@H]1[C@H](O[C@H]2[C@H](O)[C@@H](N)[C@H](O[C@H]3[C@H](O)[C@@H](N)[C@H](O[C@H]4[C@H](O)[C@@H](N)[C@H](O[C@H]5[C@H](O)[C@@H](N)[C@H](O[C@H]6[C@H](O)[C@@H](N)[C@H](O[C@H]7[C@H](O)[C@@H](N)C(O)O[C@@H]7CO)O[C@@H]6CO)O[C@@H]5CO)O[C@@H]4CO)O[C@@H]3CO)O[C@@H]2CO)O[C@H](CO)[C@@H](O)[C@@H]1O (stereo partly shown) [(GlcNH2)7]
CEBiP-RNAi rice cells
  reactive oxygen responsiveness in both CEBiP-RNAi lines: Non-responsiveness

## CC(=O)N[C@H]1[C@H](O[C@H]2[C@H](O)[C@@H](NC(C)=O)[C@H](O[C@H]3[C@H](O)[C@@H](NC(C)=O)[C@H](O[C@H]4[C@H](O)[C@@H](NC(C)=O)C(O)O[C@@H]4CO)O[C@@H]3CO)O[C@@H]2CO)O[C@H](CO)[C@@H](O[C@@H]2O[C@H](CO)[C@@H](O[C@@H]3O[C@H](CO)[C@@H](O[C@@H]4O[C@H](CO)[C@@H](O)[C@H](O)[C@H]4NC(C)=O)[C@H](O)[C@H]3NC(C)=O)[C@H](O)[C@H]2NC(C)=O)[C@@H]1O (stereo partly shown) [chitin oligosaccharide elicitor]
CEBiP gene expression
  induction of expression of the target gene (CEBiP): induce expression
